Consider one compound from ChEMBL document CHEMBL4715853 (J Med Chem, 2020).

What is called pEC50 is the EC50 on a negative log10 scale, so that one unit is a factor of ten. A lower pEC50 goes with a large EC50.

pEC50: −log10 of the molar value.

For this test, the system named is Human coronavirus 229E. Kind of test: Antiviral activity against HCoV-229E harboring GFP infected in human Huh-7 cells treated 1 hr prior to viral infection by fluorometric analysis. It counts as functional, organism-based.

With `CCN(CC)CCCC(C)Nc1ccnc2cc(Cl)ccc12` (stereo unspecified) [CHLOROQUINE], the negative-log EC50 (pEC50) is 5.48.
